We go through 20 compounds from US20230041563A1, “N-(1,3,4-OXADIAZOL-2-YL)ARYLCARBOXAMIDES OR SALTS THEREOF, PREPARATION METHODS, HERBICIDAL COMPOSITIONS AND USES THEREOF” (priority 2018, published 2023).

Holding throughout (test): Weeding effect in post-emergence stage (greenhouse pot spray)
Common to all, as to format: in vivo

In one test the test system is Abutilon theophrasti. Conditions: Table 3, dose 60 g a.i./ha. The source says:
(§1) The activity level criteria for plant damage (i.e., growth control rate) are as follows:
(§2) The above growth control rates are fresh weight control rates.
(§3) Experiment on weeding effect in post-emergence stage: monocotyledonous and dicotyledonous weed seeds (Descurainia sophia, Capsella bursa-pastoris, Abutilon theophrasti, Galium aparine, Stellaria media, Lithospermum arvense, rorippa indica, Alopecurus aequalis, Beckmannia syzigachne, Sclerochloa dura, Phleum paniculatum, Bromus japonicus, Aegilops tauschii, Phalaris arundinacea, Amaranthus retroflexus, Chenopodiaceae, Commelina communis, Sonchus arvensis, convolvulus arvensis, Cirsium setosum, Solanum nigrum, Acalypha australis, Digitaria sanguinalis, Echinochloa crusgalli, Setaria viridis, Setaria glauca, Leptochloa chinensis, Monochoria vaginalis, Sagittaria trifolia, Scirpus juncoides, Cyperus rotundus, Cyperus iria, Cyperus difformis, Fimbristylis, Portulaca oleracea, Xanthium sibiricum, Pharbitis nil) and major crop seeds (wheat, corn, rice, soybean, cotton, oilseed rape, millet, sorghum, potato, sesame, ricinus) were placed in plastic pots filled with soil, then covered with 0.5-2 cm of soil, allowed to grow in a good greenhouse environment. After 2 weeks of sowing, the test plants were treated in the 2 to 3 leaf stage. The tested compounds of the present invention were respectively dissolved in acetone, then added with Tween 80 and 1.5 liter/ha of emulsifiable concentrate of methyl oleate as synergist, diluted with a certain amount of water to obtain a solution with a certain concentration, and sprayed with a spray tower onto the plants. After the application, the plants were cultured for 3 weeks in the greenhouse, and then the experimental results of the weeding were counted. […]

A further test relates to Digitaria sanguinalis.
Excerpt: as §1, §2, §3

The next test has as its system Setaria viridis.
Excerpt: as §1, §2, §3

The subject of a further test is Echinochloa crusgalli.
Excerpt: as §1, §2, §3

Structures are written as SMILES.

With `CCC(C)[S+]([O-])c1c(C(F)(F)F)ccc(C(=O)Nc2nnc(C)o2)c1F` (mixture of isomers) [Compound 1-17], in the test on Abutilon theophrasti, the “Abutilon theophrasti (activity level)” value was 5 (Level 5: growth control rate is above 85%). Further, the “Digitaria sanguinahs (activity level)” value with Digitaria sanguinalis (Table 3, dose 60 g a.i./ha) is listed as 5 (Level 5: growth control rate is above 85%). For the same compound, in the test on Setaria viridis (Table 3, dose 60 g a.i./ha), the “Setaria viridis (activity level)” value is recorded as 5 (Level 5: growth control rate is above 85%).

On to `Cc1nnc(NC(=O)c2ccc(C(F)(F)F)c([S@+]([O-])CCCO)c2F)o1` [1-430 (R-configuration)], for which the “Digitaria sanguinahs (activity level)” value in the test with Digitaria sanguinalis (Table 3, dose 500 g a.i./ha) is listed as 5 (Level 5: growth control rate is above 85%). Further, the “Echinochloa crusgali (activity level)” value in the test with Echinochloa crusgalli (Table 3, dose 500 g a.i./ha) is reported as 5 (Level 5: growth control rate is above 85%). In addition, the “Setaria viridis (activity level)” value in the test on Setaria viridis (Table 3, dose 500 g a.i./ha) is 5 (Level 5: growth control rate is above 85%).

Take `Cc1nnc(NC(=O)c2ccc(C(F)(F)F)c([S@@+]([O-])CC(C)O)c2F)o1` (stereo partly drawn) [1-431 (R-configuration)]: in the test with Digitaria sanguinalis (Table 3, dose 500 g a.i./ha), the “Digitaria sanguinahs (activity level)” value is 5 (Level 5: growth control rate is above 85%). Besides, the “Echinochloa crusgali (activity level)” value with Echinochloa crusgalli (Table 3, dose 500 g a.i./ha) is given as 5 (Level 5: growth control rate is above 85%). Besides, in the test with Setaria viridis (Table 3, dose 500 g a.i./ha), the “Setaria viridis (activity level)” value is listed as 5 (Level 5: growth control rate is above 85%).

As for `Cc1nnc(NC(=O)c2ccc(C(F)(F)F)c([S@@+]([O-])CCCN)c2F)o1` [1-432 (R-configuration)], the “Digitaria sanguinahs (activity level)” value in the test with Digitaria sanguinalis (Table 3, dose 500 g a.i./ha) is 5 (Level 5: growth control rate is above 85%). Besides, in the test with Echinochloa crusgalli (Table 3, dose 500 g a.i./ha), the “Echinochloa crusgali (activity level)” value was 5 (Level 5: growth control rate is above 85%). Moreover, the “Setaria viridis (activity level)” value in the test with Setaria viridis (Table 3, dose 500 g a.i./ha) was 5 (Level 5: growth control rate is above 85%).

For the compound `CCOC[S+]([O-])c1c(C(F)(F)F)ccc(C(=O)Nc2nnc(C)o2)c1F` (stereo not drawn) [1-444 (R-configuration)], the “Digitaria sanguinahs (activity level)” value in the test on Digitaria sanguinalis (Table 3, dose 500 g a.i./ha) is 5 (Level 5: growth control rate is above 85%). Further, in the test with Echinochloa crusgalli (Table 3, dose 500 g a.i./ha), the “Echinochloa crusgali (activity level)” value was 5 (Level 5: growth control rate is above 85%). In addition, the “Setaria viridis (activity level)” value in the test on Setaria viridis (Table 3, dose 500 g a.i./ha) was 5 (Level 5: growth control rate is above 85%).

As for `CCOCC[S@+]([O-])c1c(C(F)(F)F)ccc(C(=O)Nc2nnc(C)o2)c1F` [1-446 (R-configuration)], the “Digitaria sanguinahs (activity level)” value in the test with Digitaria sanguinalis (Table 3, dose 500 g a.i./ha) was 5 (Level 5: growth control rate is above 85%). In addition, in the test on Echinochloa crusgalli (Table 3, dose 500 g a.i./ha), the “Echinochloa crusgali (activity level)” value is 5 (Level 5: growth control rate is above 85%). In the test with Setaria viridis (Table 3, dose 500 g a.i./ha), the “Setaria viridis (activity level)” value is 5 (Level 5: growth control rate is above 85%).

`COC(C)C[S@+]([O-])c1c(C(F)(F)F)ccc(C(=O)Nc2nnc(C)o2)c1F` (stereo partly drawn) [1-447 (R-configuration)]: the “Digitaria sanguinahs (activity level)” value in the test with Digitaria sanguinalis (Table 3, dose 500 g a.i./ha) is recorded as 5 (Level 5: growth control rate is above 85%). Also, the “Echinochloa crusgali (activity level)” value in the test with Echinochloa crusgalli (Table 3, dose 500 g a.i./ha) is on record as 5 (Level 5: growth control rate is above 85%). In the test with Setaria viridis (Table 3, dose 500 g a.i./ha), the “Setaria viridis (activity level)” value is 5 (Level 5: growth control rate is above 85%).

On to `COCCC[S@@+]([O-])c1c(C(F)(F)F)ccc(C(=O)Nc2nnc(C)o2)c1F` [1-448 (R-configuration)], for which the “Digitaria sanguinahs (activity level)” value in the test with Digitaria sanguinalis (Table 3, dose 500 g a.i./ha) is on record as 5 (Level 5: growth control rate is above 85%). Moreover, in the test on Echinochloa crusgalli (Table 3, dose 500 g a.i./ha), the “Echinochloa crusgali (activity level)” value is 5 (Level 5: growth control rate is above 85%). The “Setaria viridis (activity level)” value in the test with Setaria viridis (Table 3, dose 500 g a.i./ha) was 5 (Level 5: growth control rate is above 85%).

Take `Cc1nnc(NC(=O)c2ccc(C(F)(F)F)c([S@@+]([O-])CCOC(F)F)c2F)o1` [1-523 (R-configuration)]: the “Digitaria sanguinahs (activity level)” value with Digitaria sanguinalis (Table 3, dose 500 g a.i./ha) is on record as 5 (Level 5: growth control rate is above 85%). For the same compound, the “Echinochloa crusgali (activity level)” value in the test on Echinochloa crusgalli (Table 3, dose 500 g a.i./ha) was 5 (Level 5: growth control rate is above 85%). The “Setaria viridis (activity level)” value with Setaria viridis (Table 3, dose 500 g a.i./ha) was 5 (Level 5: growth control rate is above 85%).

In the case of `CC(C)=NOCC[S@@+]([O-])c1c(C(F)(F)F)ccc(C(=O)Nc2nnc(C)o2)c1F` [1-525 (R-configuration)], in the test with Digitaria sanguinalis (Table 3, dose 500 g a.i./ha), the “Digitaria sanguinahs (activity level)” value was 5 (Level 5: growth control rate is above 85%). For the same compound, the “Echinochloa crusgali (activity level)” value in the test on Echinochloa crusgalli (Table 3, dose 500 g a.i./ha) is 5 (Level 5: growth control rate is above 85%). Further, the “Setaria viridis (activity level)” value in the test with Setaria viridis (Table 3, dose 500 g a.i./ha) is given as 5 (Level 5: growth control rate is above 85%).

Regarding `CC(=O)C[S@@+]([O-])c1c(C(F)(F)F)ccc(C(=O)Nc2nnc(C)o2)c1F` [1-552 (R-configuration)], in the test on Digitaria sanguinalis (Table 3, dose 125 g a.i./ha), the “Digitaria sanguinahs (activity level)” value is on record as 5 (Level 5: growth control rate is above 85%). For the same compound, the “Echinochloa crusgali (activity level)” value with Echinochloa crusgalli (Table 3, dose 125 g a.i./ha) is 5 (Level 5: growth control rate is above 85%). The “Setaria viridis (activity level)” value with Setaria viridis (Table 3, dose 125 g a.i./ha) is given as 5 (Level 5: growth control rate is above 85%).

In the case of `CCC[S@+]([O-])c1c(C(F)(F)F)ccc(C(=O)Nc2nnc(CC)o2)c1F` [2-8 (R-configuration)], the “Digitaria sanguinahs (activity level)” value in the test with Digitaria sanguinalis (Table 3, dose 250 g a.i./ha) is 5 (Level 5: growth control rate is above 85%). In the test with Echinochloa crusgalli (Table 3, dose 250 g a.i./ha), the “Echinochloa crusgali (activity level)” value is given as 5 (Level 5: growth control rate is above 85%). Moreover, the “Setaria viridis (activity level)” value with Setaria viridis (Table 3, dose 250 g a.i./ha) was 5 (Level 5: growth control rate is above 85%).

Turning to `CC[S@+]([O-])c1c(C(F)(F)F)ccc(C(=O)Nc2nnco2)c1F` [3-5 (R-configuration)], the “Digitaria sanguinahs (activity level)” value in the test with Digitaria sanguinalis (Table 3, dose 120 g a.i./ha) is 5 (Level 5: growth control rate is above 85%). Moreover, the “Echinochloa crusgali (activity level)” value in the test with Echinochloa crusgalli (Table 3, dose 120 g a.i./ha) is given as 5 (Level 5: growth control rate is above 85%). Also, the “Setaria viridis (activity level)” value with Setaria viridis (Table 3, dose 120 g a.i./ha) is reported as 5 (Level 5: growth control rate is above 85%).

In the case of `CCC[S@@+]([O-])c1c(C(F)(F)F)ccc(C(=O)Nc2nnco2)c1F` [3-8 (R-configuration)], in the test on Digitaria sanguinalis (Table 3, dose 60 g a.i./ha), the “Digitaria sanguinahs (activity level)” value is 5 (Level 5: growth control rate is above 85%). In addition, the “Echinochloa crusgali (activity level)” value with Echinochloa crusgalli (Table 3, dose 60 g a.i./ha) is 5 (Level 5: growth control rate is above 85%). Moreover, the “Setaria viridis (activity level)” value with Setaria viridis (Table 3, dose 60 g a.i./ha) is 5 (Level 5: growth control rate is above 85%).

For `CC(C)[S@+]([O-])c1c(C(F)(F)F)ccc(C(=O)Nc2nnco2)c1F` [3-11 (R-configuration)], the “Digitaria sanguinahs (activity level)” value in the test on Digitaria sanguinalis (Table 3, dose 125 g a.i./ha) is 5 (Level 5: growth control rate is above 85%). Also, the “Echinochloa crusgali (activity level)” value in the test on Echinochloa crusgalli (Table 3, dose 125 g a.i./ha) was 5 (Level 5: growth control rate is above 85%). The “Setaria viridis (activity level)” value in the test with Setaria viridis (Table 3, dose 125 g a.i./ha) was 5 (Level 5: growth control rate is above 85%).

Regarding `CCCC[S@+]([O-])c1c(C(F)(F)F)ccc(C(=O)Nc2nnco2)c1F` [3-14 (R-configuration)], in the test on Digitaria sanguinalis (Table 3, dose 60 g a.i./ha), the “Digitaria sanguinahs (activity level)” value is given as 5 (Level 5: growth control rate is above 85%). Besides, the “Echinochloa crusgali (activity level)” value in the test with Echinochloa crusgalli (Table 3, dose 60 g a.i./ha) is recorded as 5 (Level 5: growth control rate is above 85%). Also, the “Setaria viridis (activity level)” value with Setaria viridis (Table 3, dose 60 g a.i./ha) was 5 (Level 5: growth control rate is above 85%).

As to `CC(C)C[S@@+]([O-])c1c(C(F)(F)F)ccc(C(=O)Nc2nnco2)c1F` [3-20 (R-configuration)], in the test on Digitaria sanguinalis (Table 3, dose 125 g a.i./ha), the “Digitaria sanguinahs (activity level)” value is 5 (Level 5: growth control rate is above 85%). In addition, the “Echinochloa crusgali (activity level)” value in the test on Echinochloa crusgalli (Table 3, dose 125 g a.i./ha) was 5 (Level 5: growth control rate is above 85%). For the same compound, the “Setaria viridis (activity level)” value in the test on Setaria viridis (Table 3, dose 125 g a.i./ha) is given as 5 (Level 5: growth control rate is above 85%).

Take `O=C(Nc1nnco1)c1ccc(C(F)(F)F)c([S@@+]([O-])CCC(F)(F)F)c1F` [3-52 (R-configuration)]: in the test on Digitaria sanguinalis (Table 3, dose 125 g a.i./ha), the “Digitaria sanguinahs (activity level)” value was 5 (Level 5: growth control rate is above 85%). In addition, in the test on Echinochloa crusgalli (Table 3, dose 125 g a.i./ha), the “Echinochloa crusgali (activity level)” value is on record as 5 (Level 5: growth control rate is above 85%). Further, the “Setaria viridis (activity level)” value in the test with Setaria viridis (Table 3, dose 125 g a.i./ha) is recorded as 5 (Level 5: growth control rate is above 85%).

Regarding `COCC[S@+]([O-])c1c(C(F)(F)F)ccc(C(=O)Nc2nnco2)c1F` [3-57 (R-configuration)], the “Digitaria sanguinahs (activity level)” value in the test on Digitaria sanguinalis (Table 3, dose 125 g a.i./ha) was 5 (Level 5: growth control rate is above 85%). Moreover, the “Echinochloa crusgali (activity level)” value in the test on Echinochloa crusgalli (Table 3, dose 125 g a.i./ha) was 5 (Level 5: growth control rate is above 85%). Also, the “Setaria viridis (activity level)” value in the test on Setaria viridis (Table 3, dose 125 g a.i./ha) is 5 (Level 5: growth control rate is above 85%).

On to `CCC[S@@+]([O-])c1c(C(F)(F)F)ccc(C(=O)Nc2nnc(C(C)C)o2)c1F` [6-8 (R-configuration)], for which the “Digitaria sanguinahs (activity level)” value with Digitaria sanguinalis (Table 3, dose 250 g a.i./ha) is 5 (Level 5: growth control rate is above 85%). Besides, in the test on Echinochloa crusgalli (Table 3, dose 250 g a.i./ha), the “Echinochloa crusgali (activity level)” value is recorded as 5 (Level 5: growth control rate is above 85%). The “Setaria viridis (activity level)” value with Setaria viridis (Table 3, dose 250 g a.i./ha) is 5 (Level 5: growth control rate is above 85%).
